Experimental data from PubChem BioAssay (NCI).
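Step 1: Grow cells in 96-well plates. Step 2: Expose to compound for 48 hours at 5 concentrations. Step 3: Interpolate endpoints linearly; if unreached, use highest concentration. Abbreviation: GI50, concentration required for 50% inhibition of growth. The concentration for full growth arrest is given as TGI.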

Experiments:
Assay in all cases: NCI-60 cell line screen, 48 h; in the data active = GI50 below about 0.43 µM; inactive = the rest
OVCAR-5 ovarian = test system: OVCAR-5 ovarian
U251 CNS = test system: U251 CNS
NCI/ADR-RES ovarian = test system: NCI/ADR-RES ovarian
786-0 renal = test system: 786-0 renal
RXF 393 renal = test system: RXF 393 renal
OVCAR-4 ovarian = test system: OVCAR-4 ovarian
HS 578T breast = test system: HS 578T breast
HL-60(TB) leukemia = test system: HL-60(TB) leukemia
NCI-H226 lung = test system: NCI-H226 lung
DU-145 prostate = test system: DU-145 prostate
BT-549 breast = test system: BT-549 breast
SK-OV-3 ovarian = test system: SK-OV-3 ovarian
SW-620 colon = test system: SW-620 colon
KM12 colon = test system: KM12 colon
HT29 colon = test system: HT29 colon
SK-MEL-2 melanoma = test system: SK-MEL-2 melanoma
UO-31 renal = test system: UO-31 renal
SK-MEL-5 melanoma = test system: SK-MEL-5 melanoma
SF-268 CNS = test system: SF-268 CNS
SF-539 CNS = test system: SF-539 CNS
PC-3 prostate = test system: PC-3 prostate
OVCAR-3 ovarian = test system: OVCAR-3 ovarian
HCC-2998 colon = test system: HCC-2998 colon
MCF7 breast = test system: MCF7 breast
HOP-62 NSCLC = test system: HOP-62 NSCLC
SK-MEL-28 melanoma = test system: SK-MEL-28 melanoma
IGROV1 ovarian = test system: IGROV1 ovarian
HCT-116 colon = test system: HCT-116 colon
UACC-257 melanoma = test system: UACC-257 melanoma
ACHN renal = test system: ACHN renal
HCT-15 colon = test system: HCT-15 colon
M14 melanoma = test system: M14 melanoma
EKVX NSCLC = test system: EKVX NSCLC
TK-10 renal = test system: TK-10 renal
SF-295 CNS = test system: SF-295 CNS
CCRF-CEM leukemia = test system: CCRF-CEM leukemia
CAKI-1 renal = test system: CAKI-1 renal
MOLT-4 leukemia = test system: MOLT-4 leukemia
OVCAR-8 ovarian = test system: OVCAR-8 ovarian
SN12C renal = test system: SN12C renal
HOP-92 NSCLC = test system: HOP-92 NSCLC
K-562 leukemia = test system: K-562 leukemia
NCI-H522 lung = test system: NCI-H522 lung
LOX IMVI melanoma = test system: LOX IMVI melanoma
COLO 205 colon = test system: COLO 205 colon
SNB-19 CNS = test system: SNB-19 CNS
SNB-75 CNS = test system: SNB-75 CNS
MDA-MB-435 = test system: MDA-MB-435
A549 NSCLC = test system: A549 NSCLC
A498 renal = test system: A498 renal
RPMI-8226 leukemia = test system: RPMI-8226 leukemia
UACC-62 melanoma = test system: UACC-62 melanoma
MDA-MB-231 breast = test system: MDA-MB-231 breast
MALME-3M melanoma = test system: MALME-3M melanoma
T-47D breast = test system: T-47D breast
NCI-H23 lung = test system: NCI-H23 lung
NCI-H460 lung = test system: NCI-H460 lung
SR leukemia = test system: SR leukemia

Nc1nc2c(nnn2C2OC(CO)C(O)C2O)c(=O)[nH]1 (stereo unspecified)
1.67 µM: TGI (COLO 205 colon)
> 23.9 µM: TGI (SK-OV-3 ovarian)
> 40.6 µM: TGI (NCI-H460 lung)
> 100 µM: TGI (OVCAR-5 ovarian) | TGI (U251 CNS) | TGI (NCI/ADR-RES ovarian) | TGI (786-0 renal) | TGI (OVCAR-4 ovarian) | TGI (HS 578T breast) | TGI (HL-60(TB) leukemia) | TGI (NCI-H226 lung) | TGI (SW-620 colon) | TGI (UO-31 renal) | TGI (SF-268 CNS) | TGI (MCF7 breast) | TGI (HOP-62 NSCLC) | TGI (SK-MEL-28 melanoma) | TGI (IGROV1 ovarian) | TGI (HCT-116 colon) | TGI (UACC-257 melanoma) | TGI (ACHN renal) | TGI (HCT-15 colon) | TGI (M14 melanoma) | TGI (EKVX NSCLC) | TGI (SF-295 CNS) | TGI (CCRF-CEM leukemia) | TGI (CAKI-1 renal) | TGI (MOLT-4 leukemia) | TGI (OVCAR-8 ovarian) | TGI (SN12C renal) | TGI (K-562 leukemia) | TGI (LOX IMVI melanoma) | TGI (SNB-19 CNS) | TGI (SNB-75 CNS) | TGI (MDA-MB-435) | TGI (A549 NSCLC) | TGI (RPMI-8226 leukemia) | TGI (MDA-MB-231 breast) | TGI (MALME-3M melanoma) | TGI (T-47D breast) | TGI (NCI-H23 lung) | TGI (SR leukemia)
13.6 µM: TGI (RXF 393 renal)
> 27.3 µM: TGI (HCC-2998 colon)
active: GI50 (DU-145 prostate) 0.371 µM | GI50 (SK-OV-3 ovarian) 0.33 µM | GI50 (ACHN renal) 0.298 µM | GI50 (COLO 205 colon) 0.393 µM
10.7 µM: TGI (OVCAR-3 ovarian)
23.8 µM: TGI (SK-MEL-2 melanoma)
> 78.8 µM: TGI (DU-145 prostate)
9.24 µM: TGI (SK-MEL-5 melanoma)
> 30.2 µM: TGI (A498 renal)
42.6 µM: TGI (HT29 colon)
inactive: GI50 (OVCAR-5 ovarian) 13.3 µM | GI50 (U251 CNS) 2.96 µM | GI50 (NCI/ADR-RES ovarian) 1.23 µM | GI50 (786-0 renal) 0.941 µM | GI50 (RXF 393 renal) 1.4 µM | GI50 (OVCAR-4 ovarian) 1.59 µM | GI50 (HS 578T breast) 12 µM | GI50 (HL-60(TB) leukemia) 0.546 µM | GI50 (NCI-H226 lung) 6.31 µM | GI50 (BT-549 breast) 2.41 µM | GI50 (SW-620 colon) 1.18 µM | GI50 (KM12 colon) 0.97 µM | GI50 (HT29 colon) 1.66 µM | GI50 (SK-MEL-2 melanoma) 0.777 µM | GI50 (UO-31 renal) 1.71 µM | GI50 (SK-MEL-5 melanoma) 2.44 µM | GI50 (SF-268 CNS) 3.15 µM | GI50 (SF-539 CNS) 1.59 µM | GI50 (PC-3 prostate) 0.617 µM | GI50 (OVCAR-3 ovarian) 1.17 µM | GI50 (HCC-2998 colon) 0.854 µM | GI50 (MCF7 breast) 1.42 µM | GI50 (HOP-62 NSCLC) 3.2 µM | GI50 (SK-MEL-28 melanoma) 16.9 µM | GI50 (IGROV1 ovarian) 2.76 µM | GI50 (HCT-116 colon) 2.16 µM | GI50 (UACC-257 melanoma) 7.29 µM | GI50 (HCT-15 colon) 0.714 µM | GI50 (M14 melanoma) 2.07 µM | GI50 (EKVX NSCLC) 14.1 µM | GI50 (TK-10 renal) 2.05 µM | GI50 (SF-295 CNS) 1.21 µM | GI50 (CCRF-CEM leukemia) 0.676 µM | GI50 (CAKI-1 renal) 0.567 µM | GI50 (MOLT-4 leukemia) 0.847 µM | GI50 (OVCAR-8 ovarian) 1.18 µM | GI50 (SN12C renal) 3.25 µM | GI50 (HOP-92 NSCLC) 0.505 µM | GI50 (K-562 leukemia) 2.06 µM | GI50 (NCI-H522 lung) 0.596 µM | GI50 (LOX IMVI melanoma) 0.475 µM | GI50 (SNB-19 CNS) 7.33 µM | GI50 (SNB-75 CNS) 5.86 µM | GI50 (MDA-MB-435) 2.11 µM | GI50 (A549 NSCLC) 3.01 µM | GI50 (A498 renal) 1.86 µM | GI50 (RPMI-8226 leukemia) 2.76 µM | GI50 (UACC-62 melanoma) 1.14 µM | GI50 (MDA-MB-231 breast) 4.48 µM | GI50 (MALME-3M melanoma) 4.62 µM | GI50 (T-47D breast) 2.87 µM | GI50 (NCI-H23 lung) 1.54 µM | GI50 (NCI-H460 lung) 1.51 µM | GI50 (SR leukemia) 1.16 µM
68.4 µM: TGI (HOP-92 NSCLC)
> 39.7 µM: TGI (SF-539 CNS)
> 46.8 µM: TGI (KM12 colon)
32.6 µM: TGI (TK-10 renal)
> 26.3 µM: TGI (BT-549 breast)
> 44 µM: TGI (PC-3 prostate)
12.9 µM: TGI (UACC-62 melanoma)
6.74 µM: TGI (NCI-H522 lung)
